Results reported in PubChem BioAssay AID248 (DTP/NCI, 2004).
Toxic doses and inconclusive results are not listed. No stated cut-off is given here; in the data, active means T/C of 150% or more; inactive means T/C below 125%.

Test system: L1210 leukemia ip in BDF1 mice, survival T/C
Experiment: NCI In Vivo Anticancer Drug Screen. Data for tumor model L1210 Leukemia (intraperitoneal) in B6D2F1 (BDF1) mice
Conditions: endpoint: mean survival time, higher = longer survival
How it was run: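 Read-out is survival time, reported as the treated-group measurement over the vehicle-control measurement.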

Measured: T/C

CC(=O)Nc1ccc(S(=O)(=O)NC(C)=O)cc1
inactive: dose: 100.0 mg/kg/injection, schedule: Q01DX001 (ip), vehicle: other 94 % of control | dose: 100.0 mg/kg/injection, schedule: Q01DX009 (ip), vehicle: saline with Tween-80 108 % of control | dose: 200.0 mg/kg/injection, schedule: Q01DX001 (ip), vehicle: other 96 % of control | dose: 400.0 mg/kg/injection, schedule: Q01DX001 (ip), vehicle: other 107 % of control | dose: 400.0 mg/kg/injection, schedule: Q01DX009 (ip), vehicle: saline with Tween-80 97 % of control

O=C(N/N=C\c1cc(Cl)cc(Cl)c1O)c1cccnc1
inactive: dose: 100.0 mg/kg/injection, schedule: Q01DX009 (ip), vehicle: Klucel (hydroxypropylcellulose) (HPC) 100 % of control | dose: 200.0 mg/kg/injection, schedule: Q01DX009 (ip), vehicle: Klucel (hydroxypropylcellulose) (HPC) 89 % of control

Cc1nc(N)[nH]c(=O)c1NC(=O)CBr
inactive: dose: 50.0 mg/kg/injection, schedule: Q01DX001 (ip), vehicle: Klucel (hydroxypropylcellulose) (HPC) 100 % of control | dose: 100.0 mg/kg/injection, schedule: Q01DX001 (ip), vehicle: Klucel (hydroxypropylcellulose) (HPC) 104 % of control
